Data reported in PubChem BioAssay (NCI).
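1) Cells in 96-well plates. 2) Compound, 48 h, 5 concentrations. 3) Linear interpolation between surrounding doses. 4) Unreached endpoint = highest concentration. TGI: concentration producing complete growth inhibition.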

Legend:
Assay in all cases: NCI anticancer screen, dose series, 48 h
CCRF-CEM leukemia = test system: CCRF-CEM leukemia
KM12 colon = test system: KM12 colon
T-47D breast = test system: T-47D breast
SNB-19 CNS = test system: SNB-19 CNS
A549 NSCLC = test system: A549 NSCLC
SK-MEL-5 melanoma = test system: SK-MEL-5 melanoma
UO-31 renal = test system: UO-31 renal
NCI/ADR-RES ovarian = test system: NCI/ADR-RES ovarian
NCI-H23 lung = test system: NCI-H23 lung
RXF 393 renal = test system: RXF 393 renal
SR leukemia = test system: SR leukemia
SK-MEL-28 melanoma = test system: SK-MEL-28 melanoma
PC-3 prostate = test system: PC-3 prostate
IGROV1 ovarian = test system: IGROV1 ovarian
SF-295 CNS = test system: SF-295 CNS
NCI-H460 lung = test system: NCI-H460 lung
HL-60(TB) leukemia = test system: HL-60(TB) leukemia
HOP-62 NSCLC = test system: HOP-62 NSCLC
CAKI-1 renal = test system: CAKI-1 renal
MALME-3M melanoma = test system: MALME-3M melanoma

## CN(/N=C/c1cccs1)c1ccc([N+](=O)[O-])cc1[N+](=O)[O-]
CCRF-CEM leukemia
  TGI: > 100 µM
KM12 colon
  TGI: > 100 µM
T-47D breast
  TGI: > 100 µM
SNB-19 CNS
  TGI: > 100 µM
A549 NSCLC
  TGI: > 100 µM
SK-MEL-5 melanoma
  TGI: > 100 µM
UO-31 renal
  TGI: > 100 µM
NCI/ADR-RES ovarian
  TGI: > 100 µM
NCI-H23 lung
  TGI: > 100 µM
RXF 393 renal
  TGI: > 100 µM
SR leukemia
  TGI: > 100 µM
SK-MEL-28 melanoma
  TGI: > 100 µM
PC-3 prostate
  TGI: > 100 µM
IGROV1 ovarian
  TGI: > 100 µM
SF-295 CNS
  TGI: > 100 µM
NCI-H460 lung
  TGI: > 100 µM
HL-60(TB) leukemia
  TGI: > 100 µM
HOP-62 NSCLC
  TGI: > 100 µM
CAKI-1 renal
  TGI: > 100 µM

## CC1CC/C(=C\c2ccc(N(C)C)cc2)C(=O)/C1=C/c1ccc(N(C)C)cc1 (stereo unspecified)
CCRF-CEM leukemia
  TGI: > 100 µM
KM12 colon
  TGI: > 100 µM
T-47D breast
  TGI: > 100 µM
A549 NSCLC
  TGI: > 100 µM
SK-MEL-5 melanoma
  TGI: > 100 µM
UO-31 renal
  TGI: > 100 µM
NCI/ADR-RES ovarian
  TGI: > 100 µM
NCI-H23 lung
  TGI: > 100 µM
SR leukemia
  TGI: > 100 µM
SK-MEL-28 melanoma
  TGI: > 100 µM
PC-3 prostate
  TGI: > 100 µM
IGROV1 ovarian
  TGI: > 100 µM
SF-295 CNS
  TGI: > 100 µM
MALME-3M melanoma
  TGI: > 100 µM
HOP-62 NSCLC
  TGI: > 100 µM
CAKI-1 renal
  TGI: > 100 µM

## Cc1cc(C)c(C)c(-n2[nH]c(=O)n(C)c2=O)c1C
CCRF-CEM leukemia
  TGI: > 100 µM
KM12 colon
  TGI: > 100 µM
T-47D breast
  TGI: > 100 µM
SNB-19 CNS
  TGI: > 100 µM
A549 NSCLC
  TGI: > 100 µM
SK-MEL-5 melanoma
  TGI: > 100 µM
UO-31 renal
  TGI: > 100 µM
NCI/ADR-RES ovarian
  TGI: > 100 µM
NCI-H23 lung
  TGI: > 100 µM
SR leukemia
  TGI: > 100 µM
SK-MEL-28 melanoma
  TGI: > 100 µM
PC-3 prostate
  TGI: > 100 µM
IGROV1 ovarian
  TGI: > 100 µM
SF-295 CNS
  TGI: > 100 µM
NCI-H460 lung
  TGI: > 100 µM
HL-60(TB) leukemia
  TGI: > 100 µM
HOP-62 NSCLC
  TGI: > 100 µM
CAKI-1 renal
  TGI: > 100 µM

## CC(C)(C)OC(=O)CN1CCNCCN(CC(=O)OC(C)(C)C)CC1
CCRF-CEM leukemia
  TGI: > 100 µM
KM12 colon
  TGI: > 100 µM
T-47D breast
  TGI: > 100 µM
SNB-19 CNS
  TGI: > 100 µM
A549 NSCLC
  TGI: > 100 µM
SK-MEL-5 melanoma
  TGI: > 100 µM
UO-31 renal
  TGI: > 100 µM
NCI/ADR-RES ovarian
  TGI: > 100 µM
SR leukemia
  TGI: > 100 µM
PC-3 prostate
  TGI: > 100 µM
IGROV1 ovarian
  TGI: > 100 µM
SF-295 CNS
  TGI: > 100 µM
NCI-H460 lung
  TGI: > 100 µM
MALME-3M melanoma
  TGI: > 100 µM
HL-60(TB) leukemia
  TGI: 86.1 µM
HOP-62 NSCLC
  TGI: > 100 µM
CAKI-1 renal
  TGI: > 100 µM

## COc1cc2c(c(OC)c1OC)C(=O)[C@H]1OC(=O)N[C@@H]21
CCRF-CEM leukemia
  TGI: > 100 µM
KM12 colon
  TGI: > 100 µM
T-47D breast
  TGI: > 100 µM
SNB-19 CNS
  TGI: > 100 µM
A549 NSCLC
  TGI: > 100 µM
UO-31 renal
  TGI: > 100 µM
NCI/ADR-RES ovarian
  TGI: > 100 µM
NCI-H23 lung
  TGI: > 100 µM
RXF 393 renal
  TGI: > 100 µM
SR leukemia
  TGI: > 100 µM
SK-MEL-28 melanoma
  TGI: > 100 µM
PC-3 prostate
  TGI: > 100 µM
SF-295 CNS
  TGI: > 100 µM
HL-60(TB) leukemia
  TGI: > 100 µM
HOP-62 NSCLC
  TGI: > 100 µM
CAKI-1 renal
  TGI: > 100 µM

## CCCCCCCCCCCC1N=C(N)NC(CCCO)=C1C(=O)OC (stereo unspecified)
CCRF-CEM leukemia
  TGI: 3.79 µM
KM12 colon
  TGI: 2.81 µM
T-47D breast
  TGI: 17.5 µM
A549 NSCLC
  TGI: 30.4 µM
SK-MEL-5 melanoma
  TGI: 6.33 µM
UO-31 renal
  TGI: 38.1 µM
NCI/ADR-RES ovarian
  TGI: 49.5 µM
NCI-H23 lung
  TGI: 4.94 µM
SR leukemia
  TGI: > 100 µM
SK-MEL-28 melanoma
  TGI: 12.1 µM
PC-3 prostate
  TGI: 3.93 µM
IGROV1 ovarian
  TGI: 4.73 µM
SF-295 CNS
  TGI: 8.59 µM
MALME-3M melanoma
  TGI: > 62.2 µM
HL-60(TB) leukemia
  TGI: 2.81 µM
HOP-62 NSCLC
  TGI: 8.53 µM
CAKI-1 renal
  TGI: 27.3 µM

## O=C1CCC[C@H]2O[C@@H](COCc3ccccc3)C[C@@H]12
CCRF-CEM leukemia
  TGI: > 100 µM
KM12 colon
  TGI: > 100 µM
T-47D breast
  TGI: > 100 µM
SNB-19 CNS
  TGI: > 100 µM
A549 NSCLC
  TGI: > 100 µM
SK-MEL-5 melanoma
  TGI: > 100 µM
UO-31 renal
  TGI: > 100 µM
NCI/ADR-RES ovarian
  TGI: > 100 µM
NCI-H23 lung
  TGI: > 100 µM
SR leukemia
  TGI: > 100 µM
SK-MEL-28 melanoma
  TGI: > 100 µM
PC-3 prostate
  TGI: > 100 µM
SF-295 CNS
  TGI: > 100 µM
NCI-H460 lung
  TGI: > 100 µM
HL-60(TB) leukemia
  TGI: > 100 µM
HOP-62 NSCLC
  TGI: > 100 µM
CAKI-1 renal
  TGI: > 100 µM

## O=C1N[C@@H]([C@H](CCCCCO)OC(=O)c2ccccc2)CO1
CCRF-CEM leukemia
  TGI: > 100 µM
KM12 colon
  TGI: > 100 µM
T-47D breast
  TGI: > 100 µM
SNB-19 CNS
  TGI: > 100 µM
A549 NSCLC
  TGI: > 100 µM
SK-MEL-5 melanoma
  TGI: > 100 µM
UO-31 renal
  TGI: > 100 µM
NCI/ADR-RES ovarian
  TGI: > 100 µM
RXF 393 renal
  TGI: > 100 µM
SR leukemia
  TGI: > 100 µM
SK-MEL-28 melanoma
  TGI: > 100 µM
PC-3 prostate
  TGI: > 100 µM
IGROV1 ovarian
  TGI: > 100 µM
SF-295 CNS
  TGI: > 100 µM
NCI-H460 lung
  TGI: > 100 µM
HL-60(TB) leukemia
  TGI: > 100 µM
HOP-62 NSCLC
  TGI: > 100 µM
CAKI-1 renal
  TGI: > 100 µM

## CCOC(=O)COc1ccc(/C=C/C(=O)c2ccc(OC)cc2)cc1
CCRF-CEM leukemia
  TGI: > 100 µM
KM12 colon
  TGI: > 100 µM
T-47D breast
  TGI: > 100 µM
SNB-19 CNS
  TGI: > 100 µM
A549 NSCLC
  TGI: > 100 µM
UO-31 renal
  TGI: 45.4 µM
NCI/ADR-RES ovarian
  TGI: > 100 µM
NCI-H23 lung
  TGI: 79.8 µM
RXF 393 renal
  TGI: 46 µM
SR leukemia
  TGI: 87.4 µM
SK-MEL-28 melanoma
  TGI: 58.4 µM
PC-3 prostate
  TGI: 62.5 µM
IGROV1 ovarian
  TGI: > 100 µM
SF-295 CNS
  TGI: > 100 µM
MALME-3M melanoma
  TGI: 92.7 µM
HL-60(TB) leukemia
  TGI: > 100 µM
HOP-62 NSCLC
  TGI: 53.3 µM

## O=[N+]([O-])c1ccc(N=NN2CCCC2)cc1
CCRF-CEM leukemia
  TGI: > 100 µM
KM12 colon
  TGI: > 100 µM
T-47D breast
  TGI: > 100 µM
SNB-19 CNS
  TGI: > 100 µM
SK-MEL-5 melanoma
  TGI: > 100 µM
UO-31 renal
  TGI: > 100 µM
NCI/ADR-RES ovarian
  TGI: > 100 µM
NCI-H23 lung
  TGI: > 100 µM
RXF 393 renal
  TGI: > 100 µM
SR leukemia
  TGI: > 100 µM
PC-3 prostate
  TGI: > 100 µM
IGROV1 ovarian
  TGI: > 100 µM
SF-295 CNS
  TGI: > 100 µM
NCI-H460 lung
  TGI: > 100 µM
HL-60(TB) leukemia
  TGI: > 100 µM
HOP-62 NSCLC
  TGI: > 100 µM
CAKI-1 renal
  TGI: > 100 µM

## CCOC(=O)C(O)(NC(=O)Nc1ccc(F)cc1)C(F)(F)F (stereo unspecified)
CCRF-CEM leukemia
  TGI: > 100 µM
T-47D breast
  TGI: > 100 µM
SNB-19 CNS
  TGI: > 100 µM
A549 NSCLC
  TGI: > 100 µM
SK-MEL-5 melanoma
  TGI: > 100 µM
UO-31 renal
  TGI: > 100 µM
NCI/ADR-RES ovarian
  TGI: > 100 µM
NCI-H23 lung
  TGI: > 100 µM
RXF 393 renal
  TGI: > 100 µM
SR leukemia
  TGI: > 100 µM
SK-MEL-28 melanoma
  TGI: > 100 µM
PC-3 prostate
  TGI: > 100 µM
IGROV1 ovarian
  TGI: > 100 µM
HL-60(TB) leukemia
  TGI: > 100 µM
CAKI-1 renal
  TGI: > 100 µM

## CN(C)Cc1cc(N=Nc2ccccc2Cl)cc(CN(C)C)c1O
CCRF-CEM leukemia
  TGI: 76.7 µM
KM12 colon
  TGI: > 100 µM
T-47D breast
  TGI: > 100 µM
SNB-19 CNS
  TGI: > 100 µM
A549 NSCLC
  TGI: > 100 µM
SK-MEL-5 melanoma
  TGI: 32 µM
UO-31 renal
  TGI: > 100 µM
NCI/ADR-RES ovarian
  TGI: > 100 µM
NCI-H23 lung
  TGI: > 100 µM
RXF 393 renal
  TGI: 88.3 µM
SR leukemia
  TGI: > 100 µM
SK-MEL-28 melanoma
  TGI: 33.6 µM
PC-3 prostate
  TGI: > 100 µM
IGROV1 ovarian
  TGI: > 100 µM
SF-295 CNS
  TGI: > 100 µM
NCI-H460 lung
  TGI: > 100 µM
HL-60(TB) leukemia
  TGI: 62.8 µM
HOP-62 NSCLC
  TGI: > 100 µM
CAKI-1 renal
  TGI: > 100 µM
